Test results from ChEMBL document CHEMBL4715854, “Discovery of Roblitinib (FGF401) as a Reversible-Covalent Inhibitor of the Kinase Activity of Fibroblast Growth Factor Receptor 4” (J Med Chem, 2020).
≈ marks a conversion by molar mass, not a printed value.

Assays:
[1] = Half-life in Sprague-Dawley rat at 0.5 mg/kg, iv or 3 mg/kg, po measured upto 24 hrs by LC-MS/MS analysis; format: ADME, organism-based; conditions: in vivo
[2] = Half-life in Beagle dog at 0.1 mg/kg, iv or 0.3 mg/kg, po by LC-MS/MS analysis; format: ADME, organism-based, Canis lupus familiaris; conditions: in vivo
[3] = Half-life in female Balb/c mouse at 1 mg/kg, iv or 3 mg/kg, po; format: ADME, organism-based; conditions: in vivo
[4] = Dissociation constant, pKa of compound by potentiometric titration method; format: physicochemical
[5] = Half life in human intestinal S9 fraction in presence of NADPH; format: ADME, subcellular, Intestine
[6] = Oral bioavailability in Beagle dog at 0.3 mg/kg by LC-MS/MS analysis; format: ADME, organism-based, Canis lupus familiaris; conditions: in vivo
[7] = Clearance in mouse cryopreserved hepatocytes at 1 uM incubated from 1 to 80 mins by LC-MS/MS analysis; format: ADME, cell-based, Hepatocyte; conditions: time 1-80 min
[8] = Half life in rat liver S9 fraction at 1 uM in presence of NADPH incubated upto 120 mins by LC-MS/MS analysis; format: ADME, subcellular
[9] = Clearance in human liver microsome at 10 mM measured after 15 mins in presence of NADPH by LC-MS analysis; format: ADME; conditions: liver microsomes, read-out: CLH
[10] = AUC (0-48 hrs) in mouse xenografted with human Huh-7 cells at 3 mg/kg, po BID administered for 8 days; format: ADME, organism-based; design: route oral, dose 3 mg/kg, time 8 day; conditions: in vivo, 192 h
[11] = Clearance in rat cryopreserved hepatocytes at 1 uM incubated from 1 to 80 mins by LC-MS/MS analysis; format: ADME, cell-based, Hepatocyte; conditions: time 1-80 min
[12] = Clearance in dog liver microsome at 10 mM measured after 15 mins in presence of NADPH by LC-MS analysis; format: ADME, Canis lupus familiaris; conditions: liver microsomes, read-out: CLH
[13] = Half life in mouse liver S9 fraction at 1 uM in presence of NADPH incubated upto 120 mins by LC-MS/MS analysis; format: ADME, subcellular
[14] = AUC (0-48 hrs) in mouse xenografted with human Huh-7 cells at 6 mg/kg, po qd administered for 8 days; format: ADME, organism-based; design: route oral, time 8 day, dose 6 mg/kg; conditions: in vivo
[15] = Thermodynamic solubility of compound in phosphate buffer at pH 6.8 measured after 15 mins by shake-flask method based LC-HRMS analysis; format: physicochemical; conditions: read-out: Therm_solubility
[16] = Volume of distribution at steady state in Beagle dog at 0.1 mg/kg, iv or 0.3 mg/kg, po by LC-MS/MS analysis; format: ADME, organism-based, Canis lupus familiaris; conditions: in vivo, read-out: Vdss
[17] = Cmax in mouse xenografted with human Huh-7 cells at 3 mg/kg, po BID administered for 8 days; format: ADME, organism-based; design: route oral, time 8 day, dose 3 mg/kg; conditions: in vivo
[18] = Half life in human liver S9 fraction at 1 uM in presence of NADPH incubated upto 120 mins by LC-MS/MS analysis; format: ADME, subcellular
[19] = Clearance in Beagle dog at 0.1 mg/kg, iv or 0.3 mg/kg, po by LC-MS/MS analysis; format: ADME, organism-based, Canis lupus familiaris; conditions: in vivo
[20] = Half life in mouse intestinal S9 fraction in presence of NADPH; format: ADME, subcellular, Intestine
[21] = Oral bioavailability in female Balb/c mouse at 3 mg/kg; format: ADME, organism-based; conditions: in vivo
[22] = Cmax in mouse xenografted with human Huh-7 cells at 6 mg/kg, po qd administered for 8 days; format: ADME, organism-based; design: route oral, dose 6 mg/kg, time 8 day; conditions: in vivo
[23] = Volume of distribution at steady state in female Balb/c mouse at 1 mg/kg, iv or 3 mg/kg, po; format: ADME, organism-based; conditions: in vivo, read-out: Vdss
[24] = Apparent permeability of compound across apical to basolateral side in human Caco2 cells at 10 mM incubated for 120 mins by lucifer yellow based LC/MS/MS analysis; format: ADME, cell-based; conditions: Caco-2
[25] = AUC (0-48 hrs) in mouse xenografted with human Huh-7 cells at 12 mg/kg, po administered every other day for 8 days; format: ADME, organism-based; design: route oral, time 8 day, dose 12 mg/kg; conditions: in vivo
[26] = Half life in dog intestinal S9 fraction in presence of NADPH; format: ADME, subcellular, Canis lupus familiaris, Intestine; conditions: time 120 min
[27] = Half life in dog liver S9 fraction at 1 uM in presence of NADPH incubated upto 120 mins by LC-MS/MS analysis; format: ADME, subcellular, Canis lupus familiaris
[28] = Clearance in dog cryopreserved hepatocytes at 1 uM incubated from 1 to 80 mins by LC-MS/MS analysis; format: ADME, cell-based, Canis lupus familiaris, Hepatocyte; conditions: time 1-80 min
[29] = Volume of distribution at steady state in Crl:CD (SD) rat at 1 mg/kg, iv or 3 mg/kg, po measured upto 24 hrs by LC-MS/MS analysis; format: ADME, organism-based; conditions: in vivo, read-out: Vdss
[30] = Apparent permeability of compound across basolateral to apical side in human Caco2 cells at 10 mM incubated for 120 mins by lucifer yellow based LC/MS/MS analysis; format: ADME, cell-based; conditions: Caco-2
[31] = Cmax in mouse xenografted with human Huh-7 cells at 12 mg/kg, po administered every other day for 8 days; format: ADME, organism-based; design: route oral, time 8 day, dose 12 mg/kg; conditions: in vivo
[32] = Clearance in mouse liver microsome at 10 mM measured after 15 mins in presence of NADPH by LC-MS analysis; format: ADME; conditions: liver microsomes, read-out: CLH
[33] = Half life in rat intestinal S9 fraction in presence of NADPH; format: ADME, subcellular, Intestine
[34] = Oral bioavailability in Crl:CD (SD) rat at 3 mg/kg measured upto 24 hrs by LC-MS/MS analysis; format: ADME, organism-based; conditions: Crl:CD (SD), in vivo
[35] = Clearance in rat liver microsome at 10 mM measured after 15 mins in presence of NADPH by LC-MS analysis; format: ADME; conditions: liver microsomes, read-out: CLH
[36] = Clearance in Sprague-Dawley rat at 0.5 mg/kg, iv or 3 mg/kg, po measured upto 24 hrs by LC-MS/MS analysis; format: ADME, organism-based; conditions: in vivo
[37] = Clearance in human cryopreserved hepatocytes at 1 uM incubated from 1 to 80 mins by LC-MS/MS analysis; format: ADME, cell-based, Hepatocyte; conditions: time 1-80 min
[38] = Drug absorption in Sprague-Dawley rat at 10 to 100 mg/kg, po qd for 10 days by LC-MS/MS analysis; format: ADME, organism-based; conditions: in vivo, 240 h, dose 10-100 mg/kg, time 10 day
[39] = Plasma concentration in mouse xenografted with human Huh7 cells at 30 mg/kg, po BID administered for 14 days measured 12 hrs post-last dose; format: ADME, organism-based; conditions: time 14 day
[40] = Half-life in C57BL/6 mouse at 0.5 mg/kg, iv measured up to 24 hrs by LC-MS/MS analysis; format: ADME, organism-based; conditions: in vivo
[41] = AUC (0 to 24 hrs) in Crl:CD (SD) rat at 100 mg/kg, po qd treated for 1 day measured by LC-MS/MS analysis; format: ADME, organism-based; design: route oral, time 1 day, dose 100 mg/kg; conditions: in vivo
[42] = Clearance in Crl:CD (SD) rat at 1 mg/kg, iv or 3 mg/kg, po measured up to 24 hrs by LC-MS/MS analysis; format: ADME, organism-based; conditions: in vivo
[43] = Dose normalized AUC in Crl:CD (SD) rat at 3 mg/kg, po measured up to 24 hrs by LC-MS/MS analysis; format: ADME, organism-based; conditions: in vivo
[44] = AUC in C57BL/6 mouse at 0.5 mg/kg, iv measured up to 24 hrs by LC-MS/MS analysis; format: ADME, organism-based; design: route intravenous, dose 0.5 mg/kg, time <=24; conditions: in vivo
[45] = AUC in Beagle dog at 0.3 mg/kg, po by LC-MS/MS analysis; format: ADME, organism-based, Canis lupus familiaris; design: dose 0.3 mg/kg; conditions: in vivo
[46] = AUC (0 to 12 hrs) in C57BL/6 mouse at 30 mg/kg, po BID treated for 6 days measured by LC-MS/MS analysis; format: ADME, organism-based; design: route oral, dose 30 mg/kg, time 6 day; conditions: in vivo
[47] = Tmax in Sprague-Dawley rat at 10 to 100 mg/kg, po qd for 10 days by LC-MS/MS analysis; format: ADME, organism-based; conditions: in vivo, dose 10-100 mg/kg, time 10 day
[48] = AUC in Beagle dog at 0.1 mg/kg, iv by LC-MS/MS analysis; format: ADME, organism-based, Canis lupus familiaris; design: dose 0.1 mg/kg; conditions: in vivo
[49] = Half-life in Crl:CD (SD) rat at 1 mg/kg, iv or 3 mg/kg, po measured upto 24 hrs by LC-MS/MS analysis; format: ADME, organism-based; conditions: in vivo
[50] = AUC (0 to 24 hrs) in Crl:CD (SD) rat at 10 mg/kg, po qd treated for 1 day measured by LC-MS/MS analysis; format: ADME, organism-based; design: route oral, dose 10 mg/kg, time 1 day; conditions: in vivo
[51] = AUC (0 to 24 hrs) in Crl:CD (SD) rat at 30 mg/kg, po qd treated for 1 day measured by LC-MS/MS analysis; format: ADME, organism-based; design: route oral, time 1 day, dose 30 mg/kg; conditions: in vivo
[52] = Volume of distribution at steady state in C57BL/6 mouse at 0.5 mg/kg, iv measured up to 24 hrs by LC-MS/MS analysis; format: ADME, organism-based; conditions: in vivo, read-out: Vdss
[53] = Dose normalized AUC in Crl:CD (SD) rat at 1 mg/kg, iv measured up to 24 hrs by LC-MS/MS analysis; format: ADME, organism-based; conditions: in vivo
[54] = Clearance in C57BL/6 mouse at 0.5 mg/kg, iv measured up to 24 hrs by LC-MS/MS analysis; format: ADME, organism-based; conditions: in vivo
[55] = Drug metabolism in rat liver microsomes assessed as N-(5-cyanopyridin-2-yl)-7-formyl-3,4-dihydro-1,8-naphthyridine-1(2H)-carboxamide metabolite formation in presence of NADPH by LC-MS analysis; format: ADME, Microsome
[56] = Drug metabolism in Crl:CD (SD) rat at 1 mg/kg, iv assessed as N-(5-cyanopyridin-2-yl)-7-formyl-3,4-dihydro-1,8-naphthyridine-1(2H)-carboxamide metabolite formation by LC-MS/MS analysis; format: ADME, organism-based; conditions: in vivo

COCCOc1cc(NC(=O)N2CCCc3cc(CN4CCN(C)CC4=O)c(C=O)nc32)ncc1C#N
half-life [1]: 4.4 h
half-life [2]: 6.5 h
half-life [3]: 1.4 h
pKa [4]: 5.3
half-life [5]: > 2 h
bioavailability ([6]; Beagle): 69%
CLH [7]: 2.5 µL/min/mg
half-life at 1 µM [8]: > 2 h
microsomal CLint at […], 10000 µM [9]: 29 µL/min/mg
AUC [10]: 3.6 µM·h
CLH [11]: 11 µL/min/mg
microsomal CLint at […], 10000 µM [12]: 34 µL/min/mg
half-life at 1 µM [13]: > 2 h
AUC at 192 h [14]: 5.2 µM·h
solubility thermodynamic at […] [15]: 16 µM (≈ 8.12 µg/mL)
Vd [16]: 3 L/kg
Cmax [17]: 180 nM
half-life at 1 µM [18]: > 2 h
clearance [19]: 8 mL/min/kg
half-life [20]: > 2 h
F [21]: 20%
Cmax [22]: 770 nM
Vd [23]: 2.3 L/kg
Papp A→B at 2 h, 10000 µM [24]: 7.4 ×10⁻⁶ cm/s
AUC at 192 h [25]: 7.2 µM·h
half-life at 1 µM [26]: > 2 h
half-life at 1 µM [27]: 0.867 h
CLH [28]: 6.5 µL/min/mg
Vd [29]: 3.9 L/kg
Papp B→A at 2 h, 10000 µM [30]: 11 ×10⁻⁶ cm/s
Cmax [31]: 1260 nM
microsomal CLint at […], 10000 µM [32]: 18 µL/min/mg
half-life [33]: > 2 h
bioavailability [34]: 20%
microsomal CLint at […], 10000 µM [35]: 18 µL/min/mg
clearance [36]: 19 mL/min/kg
CLH [37]: 5.7 µL/min/mg

CC(C)Oc1cc(NC(=O)N2CCCc3cc(CN4CCCC4=O)c(C=O)nc32)ncc1C#N
half-life [2]: 8.1 h
Drug absorption [38]: Active
concentration at 336 h [39]: 500 nM
F ([6]; 0.3 mg/kg): 25%
half-life [40]: 5.2 h
AUC at 24 h [41]: 18700 ng·h/mL
solubility thermodynamic at […] [15]: < 6 µM
Vd [16]: 1.1 L/kg
clearance [42]: 21 mL/min/kg
AUC/dose [43]: 587 nM·h
AUC at 24 h [44]: 4.54 µM·h
AUC [45]: 5.05 µM·h
AUC at 144 h [46]: 8250 ng·h/mL
Tmax [47]: 2 h
Vd [29]: 7.2 L/kg
AUC [48]: 20.082 µM·h
half-life [49]: 14.2 h
AUC at 24 h [50]: 2830 ng·h/mL
bioavailability [34]: 33%
AUC at 24 h [51]: 5400 ng·h/mL
Vd [52]: 1.4 L/kg
AUC/dose [53]: 1768 nM·h
clearance [54]: 8 mL/min/kg

N#Cc1ccc(NC(=O)N2CCCc3ccc(CO)nc32)nc1
Drug metabolism [55]: 1.3 nM
Drug metabolism [56]: 1.3 nM
